Laboratory results as given in ChEMBL document CHEMBL1201862, “PubChem BioAssay data set” (2004).
Calls of active or inactive are those of the source.

Legend:
[1] = target: T1, Trace amine-associated receptor 1 (Homo sapiens, UniProt Q96RJ0); test: Fluorescence-based cell-based high throughput dose response assay to identify agonists of the human trace amine associated receptor 1 (TAAR1).; type: functional
T1 sequence (Q96RJ0 whole entry): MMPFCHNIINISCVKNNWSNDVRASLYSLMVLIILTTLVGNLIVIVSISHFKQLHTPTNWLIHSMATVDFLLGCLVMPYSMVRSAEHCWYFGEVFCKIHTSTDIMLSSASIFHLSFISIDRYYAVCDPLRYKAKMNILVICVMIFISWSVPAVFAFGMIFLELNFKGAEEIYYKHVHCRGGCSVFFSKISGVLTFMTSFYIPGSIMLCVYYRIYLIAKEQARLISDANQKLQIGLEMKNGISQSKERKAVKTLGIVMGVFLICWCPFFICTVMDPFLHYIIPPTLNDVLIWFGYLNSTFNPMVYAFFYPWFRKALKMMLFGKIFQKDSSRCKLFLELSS

[2] = target: T1, Trace amine-associated receptor 1; test: Counterscreen for agonists of the human trace amine associated receptor 1 (hTAAR1): Fluorescence-based cell-based high throughput dose response assay to identify hTAAR1 agonist that also desensitize TAAR1 receptor response.; type: functional
[3] = THP-1 cell cytotoxicity, dose response, cytotoxicity control for non-replicating M. tuberculosis project (AID 489025); type: functional
[4] = cells; type: functional, cell-based
[5] = cells; type: functional, cell-based; remark: listed apart in the source
[6] = target: 5-hydroxytryptamine receptor 2A (Mus musculus, UniProt P35363); type: functional, cell-based;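 further: CHO-K1 cells with tagged receptor and beta-arrestin; agonist potency measured as compound-induced activation of the receptor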
Sequence of 5-hydroxytryptamine receptor 2A (P35363 whole entry): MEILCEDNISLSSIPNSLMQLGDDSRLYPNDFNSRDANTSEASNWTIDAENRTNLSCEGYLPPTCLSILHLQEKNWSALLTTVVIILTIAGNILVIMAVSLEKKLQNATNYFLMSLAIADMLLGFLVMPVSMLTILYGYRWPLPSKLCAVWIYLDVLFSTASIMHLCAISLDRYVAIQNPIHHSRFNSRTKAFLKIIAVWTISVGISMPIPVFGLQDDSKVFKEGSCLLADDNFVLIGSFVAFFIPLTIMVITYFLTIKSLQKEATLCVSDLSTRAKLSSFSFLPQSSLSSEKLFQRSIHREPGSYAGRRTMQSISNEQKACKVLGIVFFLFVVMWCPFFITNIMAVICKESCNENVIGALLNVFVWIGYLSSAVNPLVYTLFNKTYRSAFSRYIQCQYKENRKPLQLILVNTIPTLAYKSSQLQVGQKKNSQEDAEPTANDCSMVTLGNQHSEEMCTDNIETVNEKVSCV

[7] = target: Mu-type opioid receptor (Homo sapiens, UniProt P35372); type: functional, cell-based;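 further: U2OS cells with beta-arrestin recruitment to OPRM1 by beta-gal complementation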
Sequence of Mu-type opioid receptor (P35372 whole entry, the tested form may be a part): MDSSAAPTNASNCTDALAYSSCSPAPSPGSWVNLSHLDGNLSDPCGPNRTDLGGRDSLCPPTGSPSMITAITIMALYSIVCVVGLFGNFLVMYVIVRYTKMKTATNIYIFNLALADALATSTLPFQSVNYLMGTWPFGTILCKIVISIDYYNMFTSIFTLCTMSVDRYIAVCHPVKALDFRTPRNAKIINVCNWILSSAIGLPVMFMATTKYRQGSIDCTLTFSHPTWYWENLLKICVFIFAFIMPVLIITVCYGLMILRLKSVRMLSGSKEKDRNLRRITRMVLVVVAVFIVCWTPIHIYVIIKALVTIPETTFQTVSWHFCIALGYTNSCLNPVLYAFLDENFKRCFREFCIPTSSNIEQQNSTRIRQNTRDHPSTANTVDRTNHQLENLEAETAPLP

[8] = target: Photoreceptor-specific nuclear receptor (Homo sapiens, UniProt Q9Y5X4); type: functional, cell-based;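 further: CHO-S cells with Gal4-NCOR and VP16-NR2E3 two-hybrid luciferase reporter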
Sequence of Photoreceptor-specific nuclear receptor (Q9Y5X4 whole entry, the tested form may be a part): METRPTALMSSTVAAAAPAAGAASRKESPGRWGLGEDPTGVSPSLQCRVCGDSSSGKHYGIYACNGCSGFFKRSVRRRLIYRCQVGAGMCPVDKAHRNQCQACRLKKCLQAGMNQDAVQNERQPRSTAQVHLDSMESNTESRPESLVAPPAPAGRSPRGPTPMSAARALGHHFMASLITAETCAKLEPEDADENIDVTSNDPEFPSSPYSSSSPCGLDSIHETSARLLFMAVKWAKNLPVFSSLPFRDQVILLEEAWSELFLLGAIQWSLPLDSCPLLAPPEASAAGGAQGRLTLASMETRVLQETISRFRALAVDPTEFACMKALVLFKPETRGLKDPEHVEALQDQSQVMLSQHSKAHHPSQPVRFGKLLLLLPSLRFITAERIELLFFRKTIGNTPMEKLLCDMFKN

[9] = tested on: H4; test: Luminescence Cell-Based Dose Response HTS to Identify Activators of 5'UTR Stem-Loop Driven Prion Protein mRNA Translation in H4 Neuroglioblastoma Cells. [Related pubchem assays: 1829 (Project Summary), 1814 (Primary HTS)]; type: functional; conditions: Homo sapiens
[10] = target: Genome polyprotein (dengue virus type 2, UniProt P29990); test: flavivirus cap methylation enzyme inhibition – biochemical, confirmation dose response, primary screen (AID 588689); type: functional
Sequence of Genome polyprotein (P29990 2492-3391 limits assumed): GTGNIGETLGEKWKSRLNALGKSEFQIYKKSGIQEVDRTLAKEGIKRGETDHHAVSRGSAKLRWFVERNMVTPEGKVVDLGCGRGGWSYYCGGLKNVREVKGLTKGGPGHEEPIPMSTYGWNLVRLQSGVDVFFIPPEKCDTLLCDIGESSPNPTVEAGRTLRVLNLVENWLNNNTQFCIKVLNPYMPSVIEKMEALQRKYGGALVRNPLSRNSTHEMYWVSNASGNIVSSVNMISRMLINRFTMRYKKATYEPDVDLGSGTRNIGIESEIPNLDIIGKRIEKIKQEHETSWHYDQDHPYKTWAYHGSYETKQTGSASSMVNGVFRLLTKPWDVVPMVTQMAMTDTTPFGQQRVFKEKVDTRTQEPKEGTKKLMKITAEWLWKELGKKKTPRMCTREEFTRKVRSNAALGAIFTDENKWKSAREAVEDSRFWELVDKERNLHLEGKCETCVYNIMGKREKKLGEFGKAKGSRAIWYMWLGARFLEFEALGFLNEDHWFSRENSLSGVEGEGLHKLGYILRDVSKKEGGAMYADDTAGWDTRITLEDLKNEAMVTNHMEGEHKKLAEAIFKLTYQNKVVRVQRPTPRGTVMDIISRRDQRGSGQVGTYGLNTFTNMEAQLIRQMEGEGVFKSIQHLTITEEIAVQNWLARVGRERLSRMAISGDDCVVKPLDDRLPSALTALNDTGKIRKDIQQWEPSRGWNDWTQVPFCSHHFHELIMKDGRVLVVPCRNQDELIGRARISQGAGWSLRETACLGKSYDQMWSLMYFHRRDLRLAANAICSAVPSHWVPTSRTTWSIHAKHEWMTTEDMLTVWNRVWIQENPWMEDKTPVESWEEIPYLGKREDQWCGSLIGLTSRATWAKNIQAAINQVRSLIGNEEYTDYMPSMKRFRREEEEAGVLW

[11] = target: Glucose-6-phosphate 1-dehydrogenase (Homo sapiens, UniProt P11413); test: inhibition of Homo sapiens G6PD, dose series – biochemical, fluorescence, selectivity assay for P. falciparum G6PD inhibitor project, dose response (AID 504792); type: functional
Sequence of Glucose-6-phosphate 1-dehydrogenase (P11413 whole entry): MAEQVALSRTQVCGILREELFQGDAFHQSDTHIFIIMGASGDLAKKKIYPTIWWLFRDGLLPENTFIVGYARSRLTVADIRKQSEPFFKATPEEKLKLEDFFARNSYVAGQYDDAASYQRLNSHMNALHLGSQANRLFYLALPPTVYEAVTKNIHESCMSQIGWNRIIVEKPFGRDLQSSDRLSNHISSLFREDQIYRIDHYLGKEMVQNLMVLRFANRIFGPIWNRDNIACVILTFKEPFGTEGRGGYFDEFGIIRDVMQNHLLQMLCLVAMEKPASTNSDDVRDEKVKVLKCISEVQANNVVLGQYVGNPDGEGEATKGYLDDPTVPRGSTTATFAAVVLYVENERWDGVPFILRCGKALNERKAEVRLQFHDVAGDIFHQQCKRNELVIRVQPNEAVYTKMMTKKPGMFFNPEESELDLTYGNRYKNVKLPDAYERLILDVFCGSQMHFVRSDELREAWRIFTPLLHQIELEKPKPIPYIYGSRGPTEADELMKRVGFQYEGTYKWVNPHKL

[12] = Luminescence Cell-Based Dose Response HTS to Identify Activators of Luciferase Translation or Activity in H4 […] Cells. [Related pubchem assays: 1829 (Project Summary), 1814 (Primary HTS)]; type: functional
[13] = Luminescence Cell-Based Dose Confirmation HTS to Identify Activators of 5'UTR Stem-Loop Driven Alpha-Synuclein mRNA Translation in H4 Neuroglioblastoma Cells. [Related pubchem assays: 1829 (Project Summary), 1814 (Primary HTS)]; type: functional
[14] = viability loss in THP-1 monocytes – THP-1 cells, cytotoxicity control for Vif-APOBEC3G degradation inhibitor project, dose response (AID 1117359); type: functional; conditions: THP-1
[15] = target: T2, Carboxy-terminal domain RNA polymerase II polypeptide A small phosphatase 1 (Homo sapiens, UniProt Q9GZU7); test: CTDSP1 inhibitors, concentration-response, biochemical, absorbance readout, ultra-high-throughput screen actives (AID 540297); type: functional
T2 sequence (Q9GZU7 whole entry): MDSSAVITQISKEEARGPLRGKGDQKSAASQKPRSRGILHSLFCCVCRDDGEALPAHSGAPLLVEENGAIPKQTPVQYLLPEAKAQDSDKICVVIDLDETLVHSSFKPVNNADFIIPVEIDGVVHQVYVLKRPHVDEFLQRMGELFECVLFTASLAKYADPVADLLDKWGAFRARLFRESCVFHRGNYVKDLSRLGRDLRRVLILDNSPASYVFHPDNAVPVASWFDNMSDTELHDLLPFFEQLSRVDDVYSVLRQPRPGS

[16] = target: DNA (cytosine-5)-methyltransferase 1 (Homo sapiens, UniProt P26358); test: inhibition of DNA methylation by DNMT1 – biochemical, fluorescent molecular beacon, confirmation (AID 602386); type: functional
Sequence of DNA (cytosine-5)-methyltransferase 1 (P26358 whole entry): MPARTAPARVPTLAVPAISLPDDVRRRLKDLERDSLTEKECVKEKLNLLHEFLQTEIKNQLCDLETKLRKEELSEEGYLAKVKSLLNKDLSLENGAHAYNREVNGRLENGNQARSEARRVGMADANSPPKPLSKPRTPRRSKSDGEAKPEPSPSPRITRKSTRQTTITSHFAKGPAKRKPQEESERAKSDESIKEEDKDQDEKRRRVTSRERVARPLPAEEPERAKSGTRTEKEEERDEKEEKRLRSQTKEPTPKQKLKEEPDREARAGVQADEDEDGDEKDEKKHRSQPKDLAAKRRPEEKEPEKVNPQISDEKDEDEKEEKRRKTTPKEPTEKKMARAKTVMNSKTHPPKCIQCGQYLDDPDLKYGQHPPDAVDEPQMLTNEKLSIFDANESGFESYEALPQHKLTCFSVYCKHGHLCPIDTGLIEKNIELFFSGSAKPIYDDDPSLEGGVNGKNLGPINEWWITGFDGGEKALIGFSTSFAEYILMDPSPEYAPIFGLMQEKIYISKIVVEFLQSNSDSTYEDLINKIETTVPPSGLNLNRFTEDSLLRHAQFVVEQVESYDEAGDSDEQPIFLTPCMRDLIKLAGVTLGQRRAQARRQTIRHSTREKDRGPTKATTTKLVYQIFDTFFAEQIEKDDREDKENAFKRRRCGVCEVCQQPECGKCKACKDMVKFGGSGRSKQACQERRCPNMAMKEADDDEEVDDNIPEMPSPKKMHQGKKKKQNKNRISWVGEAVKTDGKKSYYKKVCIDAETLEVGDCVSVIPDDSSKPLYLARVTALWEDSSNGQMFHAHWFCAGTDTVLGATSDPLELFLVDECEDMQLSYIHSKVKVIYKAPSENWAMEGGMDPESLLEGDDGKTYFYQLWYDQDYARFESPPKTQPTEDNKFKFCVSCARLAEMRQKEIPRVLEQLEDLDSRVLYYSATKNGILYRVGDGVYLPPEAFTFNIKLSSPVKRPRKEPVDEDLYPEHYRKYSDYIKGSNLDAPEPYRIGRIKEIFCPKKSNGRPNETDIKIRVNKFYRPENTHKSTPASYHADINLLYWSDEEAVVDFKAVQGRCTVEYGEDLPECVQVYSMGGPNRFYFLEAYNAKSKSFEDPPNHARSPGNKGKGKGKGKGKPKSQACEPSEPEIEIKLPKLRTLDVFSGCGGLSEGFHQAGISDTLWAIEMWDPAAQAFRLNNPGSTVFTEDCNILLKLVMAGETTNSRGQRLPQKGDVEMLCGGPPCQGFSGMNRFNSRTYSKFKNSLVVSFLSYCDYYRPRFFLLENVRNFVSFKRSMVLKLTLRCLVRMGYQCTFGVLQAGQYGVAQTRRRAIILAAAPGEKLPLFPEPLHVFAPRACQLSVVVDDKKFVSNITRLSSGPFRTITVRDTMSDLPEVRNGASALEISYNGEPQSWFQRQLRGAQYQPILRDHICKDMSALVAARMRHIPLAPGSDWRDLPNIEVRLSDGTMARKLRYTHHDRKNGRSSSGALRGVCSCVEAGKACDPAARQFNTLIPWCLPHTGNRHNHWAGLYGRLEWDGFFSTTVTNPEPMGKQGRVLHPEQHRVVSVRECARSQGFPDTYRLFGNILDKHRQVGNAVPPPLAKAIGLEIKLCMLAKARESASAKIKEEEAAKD

[17] = Counterscreen for antagonists of the human trace amine associated receptor 1 (hTAAR1): Fluorescence-based cell-based high throughput dose response assay to identify nonselective Ga16 antagonists.; type: functional
[18] = Counterscreen for […] of the human trace amine associated receptor 1 (TAAR1): Fluorescence-based cell-based high throughput dose response assay to identify nonselective Ga16 agonists.; type: functional
[19] = target: T1, Trace amine-associated receptor 1; test: Fluorescence-based cell-based high throughput dose response assay to identify antagonists of the human trace amine associated receptor 1 (TAAR1).; type: functional
[20] = target: T1, Trace amine-associated receptor 1; test: Counterscreen for antagonists of the human trace amine associated receptor 1 (hTAAR1): Fluorescence-based cell-based high throughput dose response assay to identify TAAR1 Agonists.; type: functional

Structure (SMILES): COc1cc(C(=O)CCN2CCC(c3ccccc3)C2)cc(OC)c1OC (stereo not given)
- EC50 [1]: 0.242 µM (active)
- IC50 [2]: 2.35 µM (active)
- CC50 [3]: > 40 µM (active)
- EC50 [4]: > 29.9 µM (inactive)
- IC50 [5]: > 29.9 µM (inactive)

Structure (SMILES): COc1cccc(NC(=O)c2ccc(CN3CCN(c4ccccc4)CC3)cc2)c1
- EC50 [6]: 4.28 µM (active)
- EC50 [7]: 92.5 µM (inactive)

Structure (SMILES): CC(C)c1cc2c(c(O)c1O)[C@@]13CCCC(C)(C)C1CC2OC3=O (stereo not given in full)
- IC50 [8]: 2.59 µM (active)
- EC50 [9]: > 120 µM (not active)
- IC50 [10]: 84.4 µM (active)
- IC50 [11]: > 80 µM (inactive)
- EC50 [12]: > 60 µM (not active)
- EC50 [13]: 71.2 µM (active)

Structure (SMILES): COc1ccc(NC(=O)CN(C)C(=O)c2cc(-c3ccco3)nc3ccccc23)cc1
- CC50 [14]: > 40 µM (active)
- IC50 [15]: 2.55 µM (active)
- IC50 [16]: 6.24 µM (active)

Structure (SMILES): COc1cc(NC(=O)c2cc3ccccc3o2)c(OC)cc1Cl
- IC50 [17]: > 29.9 µM (inactive)
- EC50 [18]: > 29.9 µM (inactive)
- IC50 [19]: 3.98 µM (active)
- EC50 [20]: > 29.9 µM (inactive)
